Test results as given in patent publication US4535080A, “Derivatives of 2-piperazino-pyrimidine, methods for their preparation and their utilization as drugs or intermediates for drugs” (Pharmuka Laboratoires, priority 1981, dated 1985).
Where two headings read alike, the source gives them in different places.

Columns and labels:
[1] = molecular target: T1, receptor sites of clonidine (rat cortex membranes) (Rattus norvegicus, UniProt P22909); assay: Affinity for the receptor sites of clonidine (3H clonidine binding, rat cortex membranes)
T1 construct: measured on rat cortex membranes; from tissue; host or cells: rat cortex membranes
T1 sequence (P22909 1-465): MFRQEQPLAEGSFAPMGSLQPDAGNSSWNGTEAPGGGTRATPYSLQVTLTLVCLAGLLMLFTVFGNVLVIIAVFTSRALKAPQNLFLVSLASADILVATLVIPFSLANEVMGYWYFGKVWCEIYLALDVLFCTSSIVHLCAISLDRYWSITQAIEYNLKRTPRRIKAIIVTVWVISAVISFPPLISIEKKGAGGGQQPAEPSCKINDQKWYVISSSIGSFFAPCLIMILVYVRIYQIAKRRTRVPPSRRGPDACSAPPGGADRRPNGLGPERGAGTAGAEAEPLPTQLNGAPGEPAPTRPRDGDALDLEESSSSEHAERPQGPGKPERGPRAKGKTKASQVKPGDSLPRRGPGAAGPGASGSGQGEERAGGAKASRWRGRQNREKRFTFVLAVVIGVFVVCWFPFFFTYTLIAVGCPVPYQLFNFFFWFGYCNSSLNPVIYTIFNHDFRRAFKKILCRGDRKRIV

[2] = test system: alpha-2 adrenergic receptors; conditions: background statement; cited from earlier work
[3] = test system: alpha adrenergic receptors; conditions: background statement; cited from earlier work

Structure (SMILES) | Ki [1] [nM] | other results
CN1CCN(c2nc(N)c(Cl)c(Cl)n2)CC1 [Example 8, 2-N-methylpiperazino-4-amino-5,6-dichloropyrimidine] | 51 | –
Cc1c(Cl)nc(N2CCN(C)CC2)nc1NC(C)C [Example 21, 2-N-methylpiperazino-4-isopropylamino-5-methyl-6-chloropyrimidine] | 16 | –
CC(C)Nc1nc(N2CCN(C)CC2)nc(Cl)c1Cl [Example 10, 2-N-methylpiperazino-4-isopropylamino-5,6-dichloropyrimidine] | 5 | –
CCc1c(Cl)nc(N2CCN(C)CC2)nc1NC(C)C [Example 25, 2-N-methylpiperazino-4-isopropylamino-5-ethyl-6-chloropyrimidine] | – | Ki ([1]; read-out: Ki): 51 nM
CNc1nc(N2CCN(C)CC2)nc(Cl)c1Cl [Example 9, 2-N-methylpiperazino-4-methylamino-5,6-dichloro-pyrimidine] | 44 | –
COc1c(Cl)nc(N2CCN(C)CC2)nc1NC(C)C [Example 12, 2-N-methylpiperazino-4-isopropylamino-5-methoxy-6-chloropyrimidine] | – | Ki ([1]; read-out: Ki): 51 nM
Clc1cccc(Cl)c1N=C1NCCN1 [Clonidine, clonidine] | – | affinity for alpha-2 receptors [2]: strong affinity; behaviour towards alpha adrenergic receptors [3]: behaves as an agonist towards alpha adrenergic receptors
